Test results taken from patent US11427543B2, “Compounds for targeting cancer stem cells” (The General Hospital Corporation, priority 2016, dated 2022).
“Also recorded” adds a separate entry of the source.

Experiments:
IL-6 = IL-6 concentration by ELISA after compound treatment; assay type: cell-based; details: 4T1 and E0771 breast cancer cell lines, 1 μM, 24 hours
Procedure: After treatment, IL-6 concentration was decreased by about 5 to 7 fold.
4T1 and E0771 cells were grow in 96 well plate and were treated with compound for 24 hours (concentration of compound was 1 μM). Commercial ELISA kit (R&D systems) was used for measuring of IL-6 concentration. […] After treatment, IL-6 concentration was decreased by about 5 to 7 fold.

G3BP2 = target: T1, G3BP2 (Homo sapiens, UniProt Q9UN86); assay: Pull-down with compound-conjugated TURBOBEADS nanoparticles, Western blot with G3BP2 antibodies; assay type: binding; details: nanoparticles bound to compound vs nanoparticles alone (control)
T1 construct: protein lysates from three breast cancer cell lines incubated overnight with; endogenous in cells
T1 sequence (Q9UN86 1-482): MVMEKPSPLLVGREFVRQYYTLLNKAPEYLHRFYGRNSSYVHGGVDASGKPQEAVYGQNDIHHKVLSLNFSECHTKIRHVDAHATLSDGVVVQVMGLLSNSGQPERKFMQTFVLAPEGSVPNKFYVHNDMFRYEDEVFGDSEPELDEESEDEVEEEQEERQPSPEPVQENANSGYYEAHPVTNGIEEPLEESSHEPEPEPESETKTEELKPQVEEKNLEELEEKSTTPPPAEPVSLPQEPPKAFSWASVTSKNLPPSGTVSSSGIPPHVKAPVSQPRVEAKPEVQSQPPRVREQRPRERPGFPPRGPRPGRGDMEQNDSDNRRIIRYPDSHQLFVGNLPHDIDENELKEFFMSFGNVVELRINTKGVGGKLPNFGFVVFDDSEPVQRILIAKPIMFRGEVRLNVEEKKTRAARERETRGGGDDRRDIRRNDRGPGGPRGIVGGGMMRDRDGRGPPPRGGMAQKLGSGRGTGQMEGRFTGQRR
Procedure: Western blot analysis was performed with G3BP2 antibodies. Small molecule 2-hydroxy-N′-[1-(2-hydroxyphenyl)ethylidene]benzohydrazide was conjugated to TURBOBEADS® carboxy nanoparticles (TURBOBEADS®). TURBOBEADS® alone were used as a negative control.
To determine which […] would bind to a test compound, TURBOBEADS® carboxy nanoparticles (TURBOBEADS®) were conjugated to 2-hydroxy-N′-[1-(2-hydroxyphenyl)ethylidene]benzohydrazide for 20 mi as per manufacturer's protocol, followed by overnight immunoprecipitation at 4° C. Proteins from metastatic cancer cells were pulled-down with using the test compound-nanoparticle conjugates and using unconjugated nanoparticles as a control.
shRNA-expressing lentivirus was obtained for each pull-down protein and used to infect modified MDA-MB-231 cells. MTT assays were performed with shRNA stable cell lines and treated with non-lethal doses of paclitaxel. Only shRNA […] made cells sensitive to treatment with paclitaxel. To confirm that the test compound (2-hydroxy-N′-[1-(2-hydroxyphenyl)ethylidene]benzohydrazide) bound to G3B3P2, an immunoprecipitation with magnetic nanoparticles bound to 2-hydroxy-N′-[1-(2-hydroxyphenyl)ethylidene]benzohydrazide and nanoparticles alone (control) was carried out.

ZEB1 = ZEB1 protein level by Western blot after compound treatment; assay type: cell-based; details: MDA-MB-453 and BT-474 breast cancer cell lines, 3 μM, 24 hours
Procedure: Immunoprecipitation was performed using Protein A Sepharose beads (GE Healthcare Lifesciences). Beads were washed, conjugated to the immunoprecipitating antibody for 2 hours, and immunoprecipitated overnight at 4° C. Western blots were performed using a standard protocol; using 4-10% gradient gel and Tris-glycine transfer buffer.
A direct molecular link between epithelial-mesenchymal transition (EMT) and CSC plasticity in breast cancer has recently been shown; EMT effectors such as ZEB1 can co-induce both EMT and stem-like properties (see e.g., Chaffer et al., Cell, 2013, 154, 61-74). To understand if the G3BP2-mediated CSC state intersects with the EMT program, we the protein level of ZEB1 in G3BP2 knockdown and overexpression breast cancer cell lines was analyzed.

PD-L1 = PD-L1 protein level by Western blot in cells under compressive (solid) stress; assay type: cell-based; details: breast cancer (4T1) and glioblastoma cells (CT2A, GL261), solid stress 0.80 kPa, 1 μM, 24 hours
Procedure: Cells were treated with 1 μM C108 for 24 hours and untreated cells were used as a control. β-actin was used as a loading control.
To generate compressive stress, a device was used that included a piston of adjustable weights applying a constant force to cells growing on a transwell membrane with 0.8 μm-pores. This membrane permitted nutrient and oxygen diffusion but prevented cell transmigration. The connection between compressive stress and G3BP2 and PD-L1 protein levels was measured in 4T1 cells. When 80% cell confluence was reached on the membrane, the cells were compressed for 24 h using the in vitro compression device; a similar membrane containing 80% cell confluence in an uncompressed condition was used as the control. After 24-h compression, proteins were isolated from the control and compressed cells cultured in full-growth medium according to the standard protocol (see e.g., Roose et al. Microvasc Res, 2003, 66(3):204-12). […] To confirm this finding, Western blot analysis was performed with different breast cancer cells (MDA-MB-231 cells) with different of compressive stress, as shown in FIG. 15B).
It was then hypothesized that compounds that bind to G3BP2 protein can repress PD-L1 in stressed cells. Breast cancer cells and glioblastoma cells in vitro were analyzed with 2-hydroxy-N′-[1-(2-hydroxyphenyl)ethylidene]benzohydrazide (i.e., C108) for 24 hours.

Binding of G3BP2 to the compound (Western blotting after immunoprecipitation with magnetic nanoparticles) (G3BP2): binds
SMILES: CC(=NNC(=O)c1ccccc1O)c1ccccc1O [C108, 2-hydroxy-N′-[1-(2-hydroxyphenyl)ethylidene]benzohydrazide]
Decrease in IL-6 concentration (IL-6): 5 to 7 fold
ZEB1 inhibition (ZEB1): 5-7 fold
PD-L1 expression level (PD-L1): repressed; also recorded: diminished
